The subject of the assay is MV-4-11 cells. Kind of assay: AML cell viability assay (RealTime-Glo). Type of assay: cell-based. The note with it: Homo sapiens, read-out: Cell viability classification.
The mark [1] stands for this setting: MV4-11, IC50 class, MV-4-11 cells, RealTime-Glo after 44 hrs of treatment (TABLE 5).
Where [2] appears, read: MV4-11, IC50 class, MV-4-11 cells, RealTime-Glo after 44 hrs of treatment (TABLE 4).
Setting [3] is: MV4-11, IC50 class, MV-4-11 cells, RealTime-Glo after 44 hrs of treatment (TABLE 2).
The mark [4] stands for this setting: MV4-11, IC50 class, MV-4-11 cells, RealTime-Glo after 44 hrs of treatment (TABLE 1).

The text below walks through data of patent publication US20250188069A1, “COMPOUNDS AND METHODS FOR DEGRADING CASEIN KINASE 1 ALPHA” (PIN THERAPEUTICS, INC., priority 2022, published 2025).

Structures can show the parent of a compound that is named as a salt. Where two headings read alike, the source gives them in different places. Some results are limits rather than exact numbers.

Consider `O=C1CCC(N2Cc3c(cccc3N(CCC3CC3)[C@H]3CC[C@H](NCCOC(F)(F)F)CC3)C2=O)C(=O)N1` (stereo partly drawn) [Compound 647], for which the IC50 under setting [1] was less than 100 nM. Consider `O=C1CCC(N2Cc3c(cccc3N(CC3CC4(CCC4)C3)[C@H]3CC[C@H](NC4CC(F)(F)C4)CC3)C2=O)C(=O)N1` (stereo partly drawn) [Compound 557, 3-(1-oxo-4-{[(1r,4r)-4-[(3,3-difluorocyclobutyl)amino]cyclohexyl]({spiro[3.3]heptan-2-ylmethyl})amino}-3H-isoindol-2-yl)piperidine-2,6-dione], for which, under setting [2], the IC50 was 100 to 1000 nM. For `NCCCCN(C[C@H]1CC[C@@H](N)CC1)c1cccc2c1CN(C1CCC(=O)NC1=O)C2=O` (stereo partly drawn) [Compound 106, 3-(4-((4-aminobutyl)(((1s,4s)-4-aminocyclohexyl)methyl)amino)-1-oxoisoindolin-2-yl)piperidine-2,6-dione, 2HCl], the IC50 under setting [3] was 100 to 1000 nM. `N[C@H]1CC[C@H](N(CCCC2COC2)c2cccc3c2CN(C2CCC(=O)NC2=O)C3=O)CC1` (stereo partly drawn) [Compound 347, 3-(4-(((1r,4r)-4-aminocyclohexyl)(3-(oxetan-3-yl)propyl)amino)-1-oxoisoindolin-2-yl)piperidine-2,6-dione]: the IC50 under setting [4] lay in the range of 100 to 1000 nM. The same measure, in the same setting: the value for `N[C@H]1CC[C@H](N(Cc2ccccc2)c2cccc3c2CN(C2CCC(=O)NC2=O)C3=O)CC1` (stereo partly drawn) [Compound 349, 3-(4-(((1r,4r)-4-aminocyclohexyl)(benzyl)amino)-1-oxoisoindolin-2-yl)piperidine-2,6-dione] was more than 1000 nM. Turning to `O=C1CCC(N2Cc3c(cccc3N(CCC3CC3)[C@H]3CC[C@@H](N4CCC5(C4)CC5(F)F)CC3)C2=O)C(=O)N1` (stereo partly drawn) [Compound 711A, 3-(4-((2-cyclopropylethyl)((1s,4s)-4-(1,1-difluoro-5-azaspiro[2.4]heptan-5-yl)cyclohexyl)amino)-1-oxoisoindolin-2-yl)piperidine-2,6-dione 2,2,2-trifluoroacetate], under setting [1], the IC50 was more than 1000 nM.

Regarding `CCCCCN(CCCCNC(=O)CCC)c1cccc2c1CN(C1CCC(=O)NC1=O)C2=O` (stereo not drawn) [Compound 148, N-(4-((2-(2,6-dioxopiperidin-3-yl)-1-oxoisoindolin-4-yl)(pentyl)amino)butyl)butyramide], the IC50 (MV4-11, 44 h) lay within 100 to 1000 nM. Regarding `O=C1CCC(N2Cc3c(cccc3N(CCC3CC3)[C@H]3CC[C@@H](N4CC[C@@H](C(F)(F)F)C4)CC3)C2=O)C(=O)N1` (stereo partly drawn) [Compound 713A, 3-(4-((2-cyclopropylethyl)((1S,4s)-4-((R)-3-(trifluoromethyl)pyrrolidin-1-yl)cyclohexyl)amino)-1-oxoisoindolin-2-yl)piperidine-2,6-dione bis(2,2,2-trifluoroacetate)], the IC50 under setting [1] was more than 1000 nM. `O=C1CCC(N2Cc3c(cccc3N(CCC3CC3)[C@H]3CC[C@@H](N4CC[C@H](C(F)(F)F)C4)CC3)C2=O)C(=O)N1` (stereo partly drawn) [Compound 712A, 3-(4-((2-cyclopropylethyl)((1R,4s)-4-((S)-3-(trifluoromethyl)pyrrolidin-1-yl)cyclohexyl)amino)-1-oxoisoindolin-2-yl)piperidine-2,6-dione 2,2,2-trifluoroacetate]: the IC50 under setting [1] is more than 1000 nM. For `O=C1CCC(N2Cc3c(cccc3N(CCC3CC3)[C@H]3CC[C@@H](NCC4(C(F)(F)F)CCC4)CC3)C2=O)C(=O)N1` (stereo partly drawn) [Compound 614A, 3-{4-[(2-cyclopropylethyl)[(1s,4s)-4-({[1-(trifluoromethyl)cyclobutyl]methyl}amino)cyclohexyl]amino]-1-oxo-3H-isoindol-2-yl}piperidine-2,6-dione; trifluoro acetate], the IC50 under setting [2] is more than 1000 nM. Take `NCCCCN(CCCN)c1cccc2c1CN(C1CCC(=O)NC1=O)C2=O` (stereo not drawn) [Compound 97, 3-(4-((4-aminobutyl)(3-aminopropyl)amino)-1-oxoisoindolin-2-yl)piperidine-2,6-dione dihydrochloride]: under setting [3], the IC50 was more than 1000 nM. For the compound `N[C@H]1C[C@H](CN(CC2CC3(CCC3)C2)c2cccc3c2CN(C2CCC(=O)NC2=O)C3=O)C1` (stereo partly drawn) [Compound 558-2, 3-[1-oxo-4-({[(1r,3r)-3-aminocyclobutyl]methyl}({spiro[3.3]heptan-2-ylmethyl})amino)-3H-isoindol-2-yl]piperidine-2,6-dione], the IC50 under setting [2] is less than 100 nM.
